Earlier results as cited in US20150174190A1, “Formulation Against General, Physical, And/Or Mental Fatigue” (priority 2013, published 2015).

System: patients that suffered from fatigue

CC(C)[C@H](N)C(=O)OCC(CO)OCn1cnc2c(=O)nc(N)[nH]c21 (stereo partly shown) [Valganciclovir]
Effect on physical and cognitive performance: improved physical and cognitive performance
